Test results published in ChEMBL document CHEMBL1125752, “Relationship between tissue selectivity and lipophilicity for inhibitors of HMG-CoA reductase” (J Med Chem, 1991).

Legend:
[1] = molecular target: T1, 3-hydroxy-3-methylglutaryl-coenzyme A reductase (Rattus norvegicus, UniProt P51639); test: Ability to inhibit microsomal preparation of HMG-CoA reductase in rat liver.
T1 sequence (P51639 whole entry): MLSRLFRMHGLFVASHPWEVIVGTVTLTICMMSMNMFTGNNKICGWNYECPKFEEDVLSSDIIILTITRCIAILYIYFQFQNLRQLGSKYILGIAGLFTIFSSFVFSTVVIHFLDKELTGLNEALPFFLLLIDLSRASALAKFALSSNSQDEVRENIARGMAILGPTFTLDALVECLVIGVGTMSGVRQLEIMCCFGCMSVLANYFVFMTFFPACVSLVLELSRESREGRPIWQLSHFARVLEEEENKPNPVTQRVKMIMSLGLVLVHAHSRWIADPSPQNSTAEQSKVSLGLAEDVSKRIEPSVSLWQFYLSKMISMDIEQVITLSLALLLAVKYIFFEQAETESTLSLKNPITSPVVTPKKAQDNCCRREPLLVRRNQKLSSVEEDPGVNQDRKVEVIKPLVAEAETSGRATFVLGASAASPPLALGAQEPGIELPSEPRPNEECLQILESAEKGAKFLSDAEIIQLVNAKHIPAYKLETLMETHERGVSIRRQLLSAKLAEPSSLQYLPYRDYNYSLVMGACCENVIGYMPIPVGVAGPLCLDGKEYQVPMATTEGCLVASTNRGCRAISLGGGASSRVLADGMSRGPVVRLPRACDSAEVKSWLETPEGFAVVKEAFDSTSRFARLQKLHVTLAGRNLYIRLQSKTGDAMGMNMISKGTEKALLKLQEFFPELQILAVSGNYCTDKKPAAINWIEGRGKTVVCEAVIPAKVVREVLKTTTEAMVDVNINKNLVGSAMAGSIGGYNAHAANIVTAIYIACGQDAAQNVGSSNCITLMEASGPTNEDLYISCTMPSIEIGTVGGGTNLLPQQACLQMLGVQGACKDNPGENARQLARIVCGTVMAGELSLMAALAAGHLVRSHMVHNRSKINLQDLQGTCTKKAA

[2] = species on record: Rattus norvegicus; test: Incorporation of [14C]- acetate into sterols measured in rat liver.; assay type: functional, organism-based
[3] = species on record: Rattus norvegicus; test: Incorporation of [14C]- acetate into sterols measured in rat spleen.; assay type: functional, organism-based
[4] = species on record: Rattus norvegicus; test: Incorporation of [14C]- acetate into sterols measured in rat testis.; assay type: functional, organism-based
[5] = IC50 ratio evaluated as the IC50 values of spleen to that of liver.; assay type: functional; parameters: reference not given here
[6] = IC50 ratio evaluated as the IC50 values of testis to that of liver.; assay type: functional; parameters: reference not given here
[7] = species on record: Rattus norvegicus; test: Compound was tested for its effect on the incorporation of [14C]- acetate into sterols measured rat spleen.; assay type: functional, organism-based
[8] = species on record: Rattus norvegicus; test: Compound was tested for its effect on the incorporation of [14C]- acetate into sterols measured rat liver.; assay type: functional, organism-based
[9] = species on record: Rattus norvegicus; test: Compound was tested for its effect on the incorporation of [14C]- acetate into sterols measured rat testis.; assay type: functional, organism-based

CC(C)c1nn(-c2ccccc2)c(-c2ccc(F)cc2)c1/C=C/[C@@H](O)C[C@@H](O)CC(=O)[O-].[Na+]
IC50 [1]: 7.2 nM | IC50 [2]: 34 nM | IC50 [3]: 12 nM | IC50 [4]: 8 nM | IC50 ratio [5]: 0.35 | IC50 ratio [6]: 0.24

Cn1nnnc1C(/C=C/[C@@H](O)C[C@@H](O)CC(=O)[O-])=C(c1ccc(F)cc1)c1ccc(F)cc1.[Na+]
IC50 [1]: 13 nM | IC50 [2]: 108 nM | IC50 [3]: 1580 nM | IC50 [4]: 638 nM | IC50 ratio [5]: 14.6 | IC50 ratio [6]: 5.9

Cc1ccc(-c2ccc(C(C)C)c(OC[C@@H](O)C[C@@H](O)CC(=O)[O-])c2-c2ccc(F)cc2)cc1.[Na+]
IC50 [1]: 100 nM | IC50 [2]: 6040 nM | IC50 [3]: 375 nM | IC50 [4]: 511 nM | IC50 ratio [5]: 0.06 | IC50 ratio [6]: 0.08

CC[C@H](C)C(=O)O[C@H]1C[C@H](O)C=C2C=C[C@H](C)[C@H](CC[C@@H](O)C[C@@H](O)CC(=O)[O-])[C@H]21.[Na+] [PRAVASTATIN SODIUM]
IC50 [1]: 40 nM | IC50 [2]: 141 nM | IC50 [3]: 228 nM | IC50 [4]: 329 nM | IC50 ratio [5]: 1.6 | IC50 ratio [6]: 2.3

CC(C)n1c(/C=C/C(O)CC(O)CC(=O)O)c(-c2ccc(F)cc2)c2ccccc21 (stereo unspecified) [FLUVASTATIN SODIUM]
IC50 [2]: 142 nM | IC50 [3]: 292 nM | IC50 [4]: 4 nM

Cc1cc(C)c(OC[C@@H](O)C[C@@H](O)CC(=O)[O-])c(C2CCCCCC2)c1.[Na+]
IC50 [1]: 141 nM | IC50 [2]: 5170 nM | IC50 [3]: 108 nM | IC50 [4]: 63 nM | IC50 ratio [5]: 0.02 | IC50 ratio [6]: 0.01

Cc1cc(-c2ccc(F)cc2)c(/C=C/[C@@H](O)C[C@@H](O)CC(=O)[O-])c(C(C)C)n1.[Na+]
IC50 [1]: 7.7 nM | IC50 [2]: 71 nM | IC50 [4]: 17 nM | IC50 [7]: 9 nM | IC50 ratio [5]: 0.13 | IC50 ratio [6]: 0.24

Cc1cc(-c2ccc(F)cc2)c(/C=C/[C@@H](O)C[C@@H](O)CC(=O)[O-])c(C(C)C)[n+]1[O-].[Na+]
IC50 [1]: 9.4 nM | IC50 [8]: 18 nM | IC50 [7]: 266 nM | IC50 [9]: 718 nM | IC50 ratio [5]: 14.8 | IC50 ratio [6]: 39.9

CC(C)c1nn(-c2cnccn2)c(-c2ccc(F)cc2)c1/C=C/[C@@H](O)C[C@@H](O)CC(=O)[O-].[Na+]
IC50 [1]: 6.6 nM | IC50 [2]: 10 nM | IC50 [3]: 20 nM | IC50 [4]: 64 nM | IC50 ratio [5]: 2 | IC50 ratio [6]: 6.4

CC(C)c1c(Br)c(Br)c(-c2ccc(F)cc2)n1CC[C@@H](O)C[C@@H](O)CC(=O)[O-].[Na+]
IC50 [1]: 26 nM | IC50 [2]: 2730 nM | IC50 [3]: 140 nM | IC50 [4]: 24 nM | IC50 ratio [5]: 0.05 | IC50 ratio [6]: 0.009

CC(C)c1nn(-c2ccccn2)c(-c2ccc(F)cc2)c1/C=C/[C@@H](O)C[C@@H](O)CC(=O)[O-].[Na+]
IC50 [1]: 10 nM | IC50 [2]: 17 nM | IC50 [3]: 29 nM | IC50 [4]: 82 nM | IC50 ratio [5]: 1.7 | IC50 ratio [6]: 4.8

CC[C@H](C)C(=O)O[C@H]1C[C@H](C)C=C2C=C[C@H](C)[C@H](CC[C@@H]3C[C@@H](O)CC(=O)O3)[C@H]21
IC50 [1]: 13 nM | IC50 [2]: 28 nM | IC50 [3]: 5 nM | IC50 [4]: 4 nM | IC50 ratio [5]: 0.17 | IC50 ratio [6]: 0.14

CC(C)c1nc2ccc(Cl)cc2c(-c2ccc(F)cc2)c1/C=C/[C@@H](O)C[C@@H](O)CC(=O)[O-].[Na+]
IC50 [1]: 480 nM | IC50 [2]: 6280 nM | IC50 [3]: 92 nM | IC50 [4]: 184 nM | IC50 ratio [5]: 0.02 | IC50 ratio [6]: 0.03

CC(C)c1nc(-c2ccccc2)cc(-c2ccc(F)cc2)c1/C=C/[C@@H](O)C[C@@H](O)CC(=O)[O-].[Na+]
IC50 [1]: 2 nM | IC50 [2]: 8070 nM | IC50 [3]: 77 nM | IC50 [4]: 16 nM | IC50 ratio [5]: 0.01 | IC50 ratio [6]: 0.002
